Results on seven compounds are retold here after patent publication US20230265116A1, “DEGRADATION OF (EGFR) BY CONJUGATION OF EGFR INHIBITORS WITH E3 LIGASE LIGAND AND METHODS OF USE” (BEIGENE, LTD., priority 2020, published 2023).

Type in all cases: cell-based
The target in assay [1] is T1, EGFR L858R/T790M (H1975-clone #36, homozygous) (Homo sapiens, UniProt P00533, L858R/T790M).
T1 construct: designed to specifically target WT EGFR but preserve the L858R/T790M copy; host or cells: H1975-clone #36
As to the kind of experiment: EGFR degradation HTRF assay, H1975-clone #36 cells. Conditions: H1975 #36, 16h treatment; for Dmax: NCI-H1975, maximum percentage of degradation. Put shortly: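 Eight-point, 5-fold series starting at 10 uM (0.2% DMSO) applied for 16 h, 37 °C, to a WT-EGFR-knockout H1975 clone carrying only L858R/T790M. Lysates read by HTRF overnight. Degradation percentage relative to DMSO control fitted for DC50, with Dmax as maximum degradation.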
Background: TR-FRET usually uses a lanthanide donor and a delayed reading to cut background.

The target in a further assay is T2, EGFR WT (BaF3 WT cells) (Homo sapiens, UniProt P00533).
T2 construct: expressed in transfected cells; host or cells: BaF3
Put plainly: EGFR degradation HTRF assay, BaF3 WT cells. Particulars: BaF3 WT, 16h treatment; for Dmax: maximum percentage of degradation, read-out: WT Dmax (%). How it is done:
BaF3 WT(wild type), BaF3-LTC(L858R/T790M/C797S) and BaF3-DTC(Del19/T790M/C797S) cells are treated with compounds diluted in 0.2% DMSO cell culture medium and incubate for 16h, 37° C., 5% CO2, H1975-#36, H1975-#28, H1975-#23 and HCC827 cells are treated with compounds diluted in 0.2% DMSO cell culture medium on day 2, incubate for 16h, 37° C., 5% CO2.the final concentriation of compounds in all assay is start with 10 uM, 5-fold dilution, total 8 doses were included.
After 16h treatment, add HTRF lysis buffer to each well; seal the plate and incubate 1 hour at room temperature on a plate shaker; Once the cells are lysed, 16 μL of cell lysate are transferred to a PE 384-well HTRF detection plate; 4 μL of pre-mixed HTRF antibodies are added to each well; Cover the plate with a plate sealer, spin 1000 rpm for 1 min, Incubate overnight at room temperature; Read on BMG PheraStar with HTRF protocol (337 nm-665 nm-620 nm).
The inhibition (degradation) percentage of the compound was calculated by the following equation: Inhibition percentage of Compound=100-100×(Signal-low control)/(High control-low control), wherein signal=each test compound group
High control=Cell group with added DMSO and without compound, indicating microplate readings without EGFR degradation;
Dmax is the maximum percentage of inhibition (degradation).
The IC50 (DC50) value of a compound can be obtained by fitting the following equation
Y=Bottom+(TOP−Bottom)/(1+((IC50/X)^hillslope))
Wherein, X and Y are known values, and IC50, Hillslope, Top and Bottom are the parameters obtained by fitting with software. Y is the inhibition percentage (calculated from the equation), X is the concentration of the compound; IC50 is the concentration of the compound when the 50% inhibition is reached. The smaller the IC50 value is, the stronger the inhibitory ability of the compound is. Vice versa, the higher the IC50 value is, the weaker the inhibitory ability of the compound is; Hillslope represents the slope of the fitted curve, generally around 1*; Bottom represents the minimum value of the curve obtained by data fitting, which is generally 0%±20%; Top represents the maximum value of the curve obtained by data fitting, which is generally 100%±20%. The experimental data were fitted by calculating and analyzing with Dotmatics data analysis software.

For a further assay, the target named is T3, EGFR (HCC827 cells) (Homo sapiens, UniProt P00533, DEL746-750).
T3 construct: endogenous in cells; host or cells: HCC827
As to the kind of experiment: EGFR degradation HTRF assay, HCC827 cells. Conditions: HCC827, 16h treatment; for Dmax: maximum percentage of degradation. Put shortly:
(§1)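 EGFR remaining after a 16 h, 37 °C exposure (8 doses, 5-fold steps from 10 uM final, 0.2% DMSO) was quantified by HTRF antibodies in cell lysate. Percent inhibition relative to DMSO control was fitted by four-parameter logistic to give DC50; Dmax denotes maximal degradation.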

In assay [2] the test system is EGFR Del19/T790M/C797S (BaF3-DTC cells). As to the kind of experiment: EGFR degradation HTRF assay, BaF3-DTC cells. Conditions: 16h treatment; for DTC Dmax (%): maximum percentage of degradation; for DC50: read-out: DTC DC50. Put shortly: as §1
Assay [3] concerns the target T4, EGFR L858R/T790M/C797S (BaF3-LTC cells) (Homo sapiens, UniProt P00533, C797S/L858R/T790M).
T4 construct: expressed in transfected cells; host or cells: BaF3
As to the kind of experiment: EGFR degradation HTRF assay, BaF3-LTC cells. Particulars: BaF3-LTC, 16h treatment; for Dmax: maximum percentage of degradation, read-out: LTC Dmax (%); for DC50: read-out: LTC DC50. Put shortly:
as §1

Molecules are shown by their SMILES.

T2 sequence (P00533 25-1210): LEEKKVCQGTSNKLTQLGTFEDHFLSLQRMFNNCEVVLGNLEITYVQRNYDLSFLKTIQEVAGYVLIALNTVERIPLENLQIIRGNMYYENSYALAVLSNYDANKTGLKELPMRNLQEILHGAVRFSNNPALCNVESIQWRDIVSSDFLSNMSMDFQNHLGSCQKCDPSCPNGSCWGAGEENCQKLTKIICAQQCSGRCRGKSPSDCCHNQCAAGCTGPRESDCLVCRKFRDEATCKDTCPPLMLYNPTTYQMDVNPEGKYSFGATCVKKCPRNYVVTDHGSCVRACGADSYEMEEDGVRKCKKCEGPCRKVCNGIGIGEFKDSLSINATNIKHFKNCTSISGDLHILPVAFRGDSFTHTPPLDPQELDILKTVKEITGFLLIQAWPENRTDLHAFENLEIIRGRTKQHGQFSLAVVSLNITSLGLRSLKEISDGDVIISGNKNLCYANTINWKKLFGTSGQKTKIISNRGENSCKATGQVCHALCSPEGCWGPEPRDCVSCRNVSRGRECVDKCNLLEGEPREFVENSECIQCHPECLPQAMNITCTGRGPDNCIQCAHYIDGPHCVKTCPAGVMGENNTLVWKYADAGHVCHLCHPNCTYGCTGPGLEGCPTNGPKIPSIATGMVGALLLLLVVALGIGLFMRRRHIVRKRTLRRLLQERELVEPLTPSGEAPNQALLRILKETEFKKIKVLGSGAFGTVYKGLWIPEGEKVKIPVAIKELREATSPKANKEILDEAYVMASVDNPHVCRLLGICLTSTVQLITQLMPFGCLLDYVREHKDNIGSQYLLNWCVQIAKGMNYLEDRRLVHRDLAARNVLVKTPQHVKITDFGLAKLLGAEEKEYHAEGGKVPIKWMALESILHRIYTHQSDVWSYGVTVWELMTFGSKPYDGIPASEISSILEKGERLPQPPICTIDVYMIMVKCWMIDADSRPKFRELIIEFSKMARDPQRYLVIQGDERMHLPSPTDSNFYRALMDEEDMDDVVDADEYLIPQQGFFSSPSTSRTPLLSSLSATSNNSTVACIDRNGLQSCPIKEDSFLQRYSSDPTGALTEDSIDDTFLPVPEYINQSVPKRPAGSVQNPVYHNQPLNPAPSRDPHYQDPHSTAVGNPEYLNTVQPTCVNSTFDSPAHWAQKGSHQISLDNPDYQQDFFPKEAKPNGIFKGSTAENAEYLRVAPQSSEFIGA
T4 sequence (P00533 25-1210 T790M/C797S/L858R): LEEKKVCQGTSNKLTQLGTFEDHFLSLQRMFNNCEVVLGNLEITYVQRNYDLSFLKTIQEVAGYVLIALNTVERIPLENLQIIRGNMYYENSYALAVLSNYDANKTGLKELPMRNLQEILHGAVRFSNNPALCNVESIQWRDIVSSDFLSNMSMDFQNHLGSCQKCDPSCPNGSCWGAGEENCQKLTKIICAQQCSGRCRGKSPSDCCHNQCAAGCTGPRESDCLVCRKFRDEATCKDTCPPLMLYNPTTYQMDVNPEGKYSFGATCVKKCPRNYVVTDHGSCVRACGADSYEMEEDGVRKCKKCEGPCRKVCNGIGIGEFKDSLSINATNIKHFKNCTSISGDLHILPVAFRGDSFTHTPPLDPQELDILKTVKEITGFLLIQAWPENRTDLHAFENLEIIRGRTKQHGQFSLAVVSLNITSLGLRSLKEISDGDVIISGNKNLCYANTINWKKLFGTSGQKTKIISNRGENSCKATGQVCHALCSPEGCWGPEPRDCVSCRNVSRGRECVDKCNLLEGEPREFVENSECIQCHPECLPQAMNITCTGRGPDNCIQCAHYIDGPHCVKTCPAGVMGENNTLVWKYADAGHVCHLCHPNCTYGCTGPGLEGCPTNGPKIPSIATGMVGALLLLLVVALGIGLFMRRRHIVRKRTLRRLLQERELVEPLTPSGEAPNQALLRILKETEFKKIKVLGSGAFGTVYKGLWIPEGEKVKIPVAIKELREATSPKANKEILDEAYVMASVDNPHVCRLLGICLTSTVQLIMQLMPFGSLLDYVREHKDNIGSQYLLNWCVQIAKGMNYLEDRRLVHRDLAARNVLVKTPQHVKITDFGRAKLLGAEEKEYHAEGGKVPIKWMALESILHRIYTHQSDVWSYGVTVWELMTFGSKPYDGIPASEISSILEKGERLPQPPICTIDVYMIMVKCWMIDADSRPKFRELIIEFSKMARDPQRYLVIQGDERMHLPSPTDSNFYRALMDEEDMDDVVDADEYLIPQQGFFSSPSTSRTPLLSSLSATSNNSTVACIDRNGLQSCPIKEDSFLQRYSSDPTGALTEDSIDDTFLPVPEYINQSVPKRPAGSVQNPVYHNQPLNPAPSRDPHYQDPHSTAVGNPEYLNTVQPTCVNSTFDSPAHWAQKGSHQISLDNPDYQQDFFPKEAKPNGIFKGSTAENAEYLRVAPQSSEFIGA
T1 sequence (P00533 25-1210 T790M/L858R): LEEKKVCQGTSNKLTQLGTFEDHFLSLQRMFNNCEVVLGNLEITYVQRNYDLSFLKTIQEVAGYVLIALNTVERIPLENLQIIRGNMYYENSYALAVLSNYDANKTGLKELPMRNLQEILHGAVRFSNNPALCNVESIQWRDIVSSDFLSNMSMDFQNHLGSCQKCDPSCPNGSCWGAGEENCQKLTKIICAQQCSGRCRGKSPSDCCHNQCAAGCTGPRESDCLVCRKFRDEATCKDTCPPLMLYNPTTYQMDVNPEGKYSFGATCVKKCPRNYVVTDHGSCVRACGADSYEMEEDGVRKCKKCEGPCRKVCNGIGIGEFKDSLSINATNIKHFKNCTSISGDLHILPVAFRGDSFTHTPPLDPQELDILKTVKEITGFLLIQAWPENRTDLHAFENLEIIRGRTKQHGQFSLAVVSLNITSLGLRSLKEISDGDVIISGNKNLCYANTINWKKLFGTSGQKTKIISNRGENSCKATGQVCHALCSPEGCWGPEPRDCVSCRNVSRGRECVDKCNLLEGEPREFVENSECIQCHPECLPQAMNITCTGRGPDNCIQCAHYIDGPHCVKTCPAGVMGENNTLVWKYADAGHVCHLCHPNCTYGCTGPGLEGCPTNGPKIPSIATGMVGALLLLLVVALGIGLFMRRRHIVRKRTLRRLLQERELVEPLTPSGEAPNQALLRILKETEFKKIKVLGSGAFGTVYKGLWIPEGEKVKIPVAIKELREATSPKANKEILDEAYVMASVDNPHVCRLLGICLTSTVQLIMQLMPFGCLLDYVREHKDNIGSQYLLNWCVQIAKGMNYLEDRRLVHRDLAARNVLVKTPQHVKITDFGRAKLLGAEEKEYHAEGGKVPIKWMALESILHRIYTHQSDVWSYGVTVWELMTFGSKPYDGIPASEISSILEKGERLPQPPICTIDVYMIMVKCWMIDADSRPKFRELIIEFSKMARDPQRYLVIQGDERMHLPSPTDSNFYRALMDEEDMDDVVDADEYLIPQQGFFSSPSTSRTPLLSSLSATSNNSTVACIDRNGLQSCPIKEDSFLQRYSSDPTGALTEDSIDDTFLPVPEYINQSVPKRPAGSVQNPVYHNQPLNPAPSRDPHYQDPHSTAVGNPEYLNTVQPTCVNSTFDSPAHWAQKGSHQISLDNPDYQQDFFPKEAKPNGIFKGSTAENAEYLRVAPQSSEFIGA
T3 sequence (P00533 with tags, fused parts or gaps DEL746-750): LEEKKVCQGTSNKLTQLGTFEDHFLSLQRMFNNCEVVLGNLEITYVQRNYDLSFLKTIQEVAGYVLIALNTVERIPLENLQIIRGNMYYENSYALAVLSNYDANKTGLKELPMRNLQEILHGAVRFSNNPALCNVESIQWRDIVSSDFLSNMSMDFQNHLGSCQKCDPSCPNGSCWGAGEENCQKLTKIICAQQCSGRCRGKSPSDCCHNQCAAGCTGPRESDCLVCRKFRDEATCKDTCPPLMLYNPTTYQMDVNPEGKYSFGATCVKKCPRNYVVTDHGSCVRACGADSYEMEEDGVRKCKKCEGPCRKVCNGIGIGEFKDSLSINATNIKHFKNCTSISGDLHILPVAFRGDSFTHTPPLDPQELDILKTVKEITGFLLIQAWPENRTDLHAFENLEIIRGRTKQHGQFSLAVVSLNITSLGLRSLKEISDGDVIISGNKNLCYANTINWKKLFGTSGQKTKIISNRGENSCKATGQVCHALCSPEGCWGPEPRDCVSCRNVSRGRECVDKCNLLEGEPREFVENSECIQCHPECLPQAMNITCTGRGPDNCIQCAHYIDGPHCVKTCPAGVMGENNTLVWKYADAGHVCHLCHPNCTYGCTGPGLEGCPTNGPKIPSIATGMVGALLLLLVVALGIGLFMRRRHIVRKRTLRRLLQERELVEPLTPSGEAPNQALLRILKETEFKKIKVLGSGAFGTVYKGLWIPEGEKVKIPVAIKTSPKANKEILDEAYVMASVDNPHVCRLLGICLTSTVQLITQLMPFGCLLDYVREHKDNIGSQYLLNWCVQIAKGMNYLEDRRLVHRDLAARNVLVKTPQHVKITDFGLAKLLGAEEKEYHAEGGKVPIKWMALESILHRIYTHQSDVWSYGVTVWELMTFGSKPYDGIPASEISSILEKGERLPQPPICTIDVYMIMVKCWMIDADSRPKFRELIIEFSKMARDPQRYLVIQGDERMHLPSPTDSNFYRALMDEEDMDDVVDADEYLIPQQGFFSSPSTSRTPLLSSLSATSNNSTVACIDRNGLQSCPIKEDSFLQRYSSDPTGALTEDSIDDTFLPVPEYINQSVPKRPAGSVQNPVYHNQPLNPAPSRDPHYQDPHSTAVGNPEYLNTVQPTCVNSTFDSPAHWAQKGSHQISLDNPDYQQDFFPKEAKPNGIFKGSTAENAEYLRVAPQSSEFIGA

What is called DC50 is the concentration giving 50% degradation. As a reminder, the Dmax is the greatest extent of degradation seen. In the case of `COc1cc(N2CCC(N3CCN(C(=O)C4CCN(CC5CCN(c6ccc7c(c6)C(=O)N(C6CCC(=O)NC6=O)C7=O)CC5)CC4)CC3)CC2)ccc1Nc1ncc(Cl)c(Nc2ccccc2P(C)(C)=O)n1` (stereo not shown) [Example 113, 5-(4-((4-(4-(1-(4-((5-chloro-4-((2-(dimethylphosphoryl)phenyl)amino)pyrimidin-2-yl)amino)-3-methoxyphenyl)piperidin-4-yl)piperazine-1-carbonyl)piperidin-1-yl)methyl)piperidin-1-yl)-2-(2,6-dioxopiperidin-3-yl)isoindoline-1,3-dione], the 50% degradation concentration (DC50) in assay [1] is 5.3 nM; at EGFR WT (BaF3 WT cells), greater than 10000 nM; on EGFR (HCC827 cells) it was 3.34 nM; in assay [2] it was 15.1 nM; in assay [3] it was 77.2 nM. In addition, the Dmax in assay [1] was 97.3%; on EGFR WT (BaF3 WT cells) it was 29.1%; at EGFR (HCC827 cells) it was 89.2%; in assay [3] it was 91%. Further, in assay [2], the “DTC Dmax (%)” value worked out at 99.16%.

On to `CCc1cc(Nc2ncc(Br)c(Nc3ccc4nccnc4c3P(C)(C)=O)n2)c(OC)cc1N1CCC(N2CCN(CCc3ccc(NC4CCC(=O)NC4=O)cc3)CC2)CC1` (stereo not shown) [Example 48, 3-((4-(2-(4-(1-(4-((5-bromo-4-((5-(dimethylphosphoryl)quinoxalin-6-yl)amino)pyrimidin-2-yl)amino)-2-ethyl-5-methoxyphenyl)piperidin-4-yl)piperazin-1-yl)ethyl)phenyl)amino)piperidine-2,6-dione], for which the half-maximal degradation concentration (DC50) in assay [1] was determined as 9.23 nM; on EGFR WT (BaF3 WT cells), 2920 nM; on EGFR (HCC827 cells) it was 4.42 nM; in assay [2], 7.6 nM; in assay [3], 24.3 nM. Moreover, the Dmax in assay [1] amounted to 64.5%; on EGFR WT (BaF3 WT cells), 52.6%; at EGFR (HCC827 cells), 76.6%; in assay [3], 90.4%. The “DTC Dmax (%)” value in assay [2] worked out at 92.6%.

Consider `CCc1cc(Nc2ncc(Br)c(Nc3ccc4nccnc4c3P(C)(C)=O)n2)c(OC)cc1N1CCC(N2CCN(C(=O)CCN3CCN(c4ccc5c(c4)C(=O)N(C4CCC(=O)NC4=O)C5=O)CC3)CC2)CC1` (stereo not shown) [Example 61, 5-(4-(3-(4-(1-(4-((5-bromo-4-((5-(dimethylphosphoryl)quinoxalin-6-yl)amino)pyrimidin-2-yl)amino)-2-ethyl-5-methoxyphenyl)piperidin-4-yl)piperazin-1-yl)-3-oxopropyl)piperazin-1-yl)-2-(2,6-dioxopiperidin-3-yl)isoindoline-1,3-dione], for which the half-maximal degradation concentration (DC50) in assay [1] was 9.34 nM; on EGFR WT (BaF3 WT cells), greater than 10000 nM; at EGFR (HCC827 cells), 2.84 nM; in assay [2], 6.05 nM; in assay [3], 20.1 nM. Also, the Dmax in assay [1] stood at 77.2%; on EGFR WT (BaF3 WT cells), 22.2%; on EGFR (HCC827 cells), 90%; in assay [3], 90.4%. In assay [2], the “DTC Dmax (%)” value is reported as 96.02%.

As to `CCc1cc(Nc2ncc(Br)c(Nc3ccc4nccnc4c3P(C)(C)=O)n2)c(OC)cc1N1CCC(N2CCN(C(=O)[C@@H]3CCN(c4ccc5c(c4)C(=O)N(C4CCC(=O)NC4=O)C5=O)C3)CC2)CC1` (stereo partly drawn) [Example 65, 5-((R)-3-(4-(1-(4-((5-bromo-4-((5-(dimethylphosphoryl)quinoxalin-6-yl)amino)pyrimidin-2-yl)amino)-2-ethyl-5-methoxyphenyl)piperidin-4-yl)piperazine-1-carbonyl)pyrrolidin-1-yl)-2-(2,6-dioxopiperidin-3-yl)isoindoline-1,3-dione], the DC50 in assay [1] is 2.31 nM; on EGFR WT (BaF3 WT cells) it was greater than 10000 nM; at EGFR (HCC827 cells) it was 2.53 nM; in assay [2], 8.05 nM; in assay [3], 14.2 nM. The Dmax in assay [1] is 85.6%; on EGFR WT (BaF3 WT cells), 15.4%; on EGFR (HCC827 cells), 73.9%; in assay [3], 75.5%. In addition, in assay [2], the “DTC Dmax (%)” value amounted to 80.45%.

Regarding `CCc1cc(Nc2ncc(Br)c(Nc3ccc4nccnc4c3P(C)(C)=O)n2)c(OC)cc1N1CCC(N2CCN(CCC3CCN(c4ccc(C5CCC(=O)NC5=O)cc4)CC3)CC2)CC1` (stereo not shown) [Example 23, 3-(4-(4-(2-(4-(1-(4-((5-bromo-4-((5-(dimethylphosphoryl)quinoxalin-6-yl)amino)pyrimidin-2-yl)amino)-2-ethyl-5-methoxyphenyl)piperidin-4-yl)piperazin-1-yl)ethyl)piperidin-1-yl)phenyl)piperidine-2,6-dione], the DC50 in assay [1] is 14.1 nM; at EGFR WT (BaF3 WT cells), greater than 10000 nM; on EGFR (HCC827 cells), 2.05 nM; in assay [2], 13.3 nM; in assay [3], 25.6 nM. Besides, the greatest degradation seen (Dmax) in assay [1] stood at 65.5%; at EGFR WT (BaF3 WT cells), 14.6%; at EGFR (HCC827 cells) it was 93.4%; in assay [3], 89%. Besides, the “DTC Dmax (%)” value in assay [2] was 95.73%.

As to `COc1cc(N2CCC(N3CCN(C(=O)CCN4CCC(c5ccc(C6CCC(=O)NC6=O)cc5)CC4)CC3)CC2)ccc1Nc1ncc(Cl)c(Nc2ccccc2N(C)S(C)(=O)=O)n1` (stereo not shown) [Example 123, N-(2-((5-chloro-2-((4-(4-(4-(3-(4-(4-(2,6-dioxopiperidin-3-yl)phenyl)piperidin-1-yl)propanoyl)piperazin-1-yl)piperidin-1-yl)-2-methoxyphenyl)amino)pyrimidin-4-yl)amino)phenyl)-N-methylmethanesulfonamide], the half-maximal degradation concentration (DC50) in assay [1] is 12.4 nM; on EGFR WT (BaF3 WT cells), greater than 10000 nM; on EGFR (HCC827 cells) it was 15.9 nM; in assay [2], 273 nM; in assay [3], greater than 10000 nM. Also, the Dmax was determined as 79.7% in assay [1], 21.6% at EGFR WT (BaF3 WT cells), 88.8% on EGFR (HCC827 cells) and 21.2% in assay [3]. In assay [2], the “DTC Dmax (%)” value is recorded as 83.94%.

Take `CP(C)(=O)c1c(Nc2nc(Nc3ccc(N4CCN(C5CN(CCC6CCN(c7ccc(C8CCC(=O)NC8=O)c(F)c7)CC6)C5)CC4)c(F)c3)ncc2Br)ccc2nccnc12` (stereo not shown) [Example 203, 3-(4-(4-(2-(3-(4-(4-((5-bromo-4-((5-(dimethylphosphoryl)quinoxalin-6-yl)amino)pyrimidin-2-yl)amino)-2-fluorophenyl)piperazin-1-yl)azetidin-1-yl)ethyl)piperidin-1-yl)-2-fluorophenyl)piperidine-2,6-dione]: the DC50 in assay [1] is 7.24 nM; on EGFR WT (BaF3 WT cells) it was greater than 10000 nM; on EGFR (HCC827 cells) it was 9.06 nM; in assay [2], 13.5 nM; in assay [3] it was 17 nM. Besides, the Dmax is 95.8% in assay [1], 35.3% at EGFR WT (BaF3 WT cells), 89.9% on EGFR (HCC827 cells) and 82.1% in assay [3]. Also, the “DTC Dmax (%)” value in assay [2] is given as 92.4%.
